Where a name gives a salt, the structure may show the parent alone. Read-outs that look alike come from different tables or passages of the source.
Target: T1, serotonin 4 receptor (5-HT4) (Cavia porcellus, UniProt O70528)
T1 construct: from tissue; host or cells: longitudinal muscle strips of guinea pig ileum (Harley guinea pigs)
Experiment: Stimulating activity on serotonin 4 receptor (twitch response in guinea pig ileum)
Type: cell-based
Protocol: Stimulating activity on serotonin 4 receptor
From Harley guinea pigs weighing 250 to 400 g, a section of ileum 10 to 20 cm proximal to the ileocecal junction was removed. Longitudinal muscle strips obtained from the ileum were used for this assay. The preparations were suspended in Krebs' solution at 32 to 34° C., bubbled continuously with 95% O2 and 5% CO2, and subjected to initial tension of about 0.8 g. Responses were recorded isometrically. Twitch responses were evoked by electrical stimulation (0.2 Hz, 1 msec pulse duration). The preparations were stimulated at supramaximal voltage for 2 to 3 hours, and were then allowed to equilibrate for about 1 hour at submaximal voltage. […] The preparations were left for at least 45 minutes before cumulative addition of each agonist.
The quinolinecarboxylic acid derivatives of the present invention were employed as sample compounds. For comparison, the following compounds were employed. These compounds were diluted by dissolving them in distilled water or in DMSO.
The data obtained was analyzed by RS1 (BBN Software Product Co.).

[1] = twitch response in guinea pig ileum, maximum contraction of sample compound = 100%, read-out: ED50 (concentration enhancing the twitch response by 50%)

T1 sequence (O70528 whole entry): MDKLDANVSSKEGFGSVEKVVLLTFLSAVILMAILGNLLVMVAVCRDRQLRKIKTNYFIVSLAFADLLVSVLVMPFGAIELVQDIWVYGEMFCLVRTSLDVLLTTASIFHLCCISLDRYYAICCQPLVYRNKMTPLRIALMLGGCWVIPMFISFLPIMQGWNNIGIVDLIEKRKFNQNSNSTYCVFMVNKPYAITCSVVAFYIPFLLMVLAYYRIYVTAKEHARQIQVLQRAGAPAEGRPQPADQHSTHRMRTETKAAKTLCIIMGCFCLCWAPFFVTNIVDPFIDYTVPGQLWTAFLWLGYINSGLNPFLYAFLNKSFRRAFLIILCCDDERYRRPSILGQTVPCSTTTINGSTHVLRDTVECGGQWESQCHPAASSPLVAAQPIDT

Row | Compound | EC50 [1] | EC50
1 | CN1[C@@H]2CC[C@H]1C[C@@H](NC(=O)c1cc3ccccc3[nH]c1=O)C2 [Comparative Compound 2, reference compound] | > 3000 nM | 
2 | CN1[C@@H]2CC[C@H]1C[C@@H](OC(=O)c1cc3ccccc3[nH]c1=O)C2 [Comparative Compound 3, reference compound] | > 3000 nM | 
3 | CCCCn1c(=O)c(C(=O)N[C@H]2C[C@H]3CC[C@@H](C2)N3C)c(O)c2ccccc21 [Comparative Compound 4, reference compound] | > 3000 nM | 
4 | C=CCN1C2CCC1CC(NC(=O)c1cc3ccccc3n(C(C)C)c1=O)C2 (stereo not drawn) [Compound 1, endo-N-(8-(2-propenyl)-8-azabicyclo[3.2.1]oct-3-yl)-1-isopropyl-2-oxo-1,2-dihydro-3-quinolinecarboxamide] |  | 59.2 nM
5 | CC(C)n1c(=O)c(C(=O)NC2CC3CCC(C2)N3CCO)cc2ccccc21 (stereo not drawn) [Compound 4, Endo-N-(8-(2-hydroxyethyl)-8-azabicyclo[3.2.1]oct-3-yl)-1-isopropyl-2-oxo-1,2-dihydro-3-quinolinecarboxamide] |  | 45.9 nM
6 | CC(C)n1c(=O)c(C(=O)NC2CC3CCC(C2)N3CCCCO)cc2ccccc21 (stereo not drawn) [Compound 6, Endo-N-(8-(4-hydroxybutyl)-8-azabicyclo[3.2.1]oct-3-yl)-1-isopropyl-2-oxo-1,2-dihydro-3-quinolinecarboxamide] |  | 38.5 nM
7 | CC(C)n1c(=O)c(C(=O)NC2CC3CCC(C2)N3CCCCCO)cc2ccccc21 (stereo not drawn) [Compound 7, Endo-N-(8-(5-hydroxypentyl)-8-azabicyclo[3.2.1]oct-3-yl)-1-isopropyl-2-oxo-1,2-dihydro-3-quinolinecarboxamide] |  | 30.8 nM
8 | CC(C)n1c(=O)c(C(=O)NC2CC3CCC(C2)N3CCCCCCO)cc2ccccc21 (stereo not drawn) [Compound 8, Endo-N-(8-(6-hydroxyhexyl)-8-azabicyclo[3.2.1]oct-3-yl)-1-isopropyl-2-oxo-1,2-dihydro-3-quinolinecarboxamide hydrochloride] |  | 62.3 nM
9 | CC(=O)OCCCCCN1C2CCC1CC(NC(=O)c1cc3ccccc3n(C(C)C)c1=O)C2 (stereo not drawn) [Compound 9, Endo-N-(8-(5-acetoxypentyl)-8-azabicyclo[3.2.1]oct-3-yl)-1-isopropyl-2-oxo-1,2-dihydro-3-quinolinecarboxamide hydrochloride] |  | 33 nM
10 | CSCCN1C2CCC1CC(NC(=O)c1cc3ccccc3n(C(C)C)c1=O)C2 (stereo not drawn) [Compound 17, Endo-N-(8-(2-(methylthio)ethyl)-8-azabicyclo[3.2.1]oct-3-yl)-1-isopropyl-2-oxo-1,2-dihydro-3-quinolinecarboxamide] |  | 48 nM
11 | CC(C)n1c(=O)c(C(=O)NC2CC3CCC(C2)N3CCS(=O)(=O)c2ccccc2)cc2ccccc21 (stereo not drawn) [Compound 19, Endo-N-(8-(2-(phenylsulfonyl)ethyl)-8-azabicyclo[3.2.1]oct-3-yl)-1-isopropyl-2-oxo-1,2-dihydro-3-quinolinecarboxamide] |  | 86.6 nM
12 | CC(C)n1c(=O)c(C(=O)NC2CC3CCC(C2)N3CC2CCCCO2)cc2ccccc21 (stereo not drawn) [Compound 22, Endo-N-(8-(tetrahydropyran-2-methyl)-8-azabicyclo[3.2.1]oct-3-yl)-1-isopropyl-2-oxo-1,2-dihydro-3-quinolinecarboxamide] |  | 24 nM
13 | CC(C)n1c(=O)c(C(=O)NC2CC3CCC(C2)N3CC(=O)O)cc2ccccc21 (stereo not drawn) [Compound 26, Endo-N-(8-(carboxymethyl)-8-azabicyclo[3.2.1]oct-3-yl)-1-isopropyl-2-oxo-1,2-dihydro-3-quinolinecarboxamide] |  | 66.1 nM
14 | CCOC(=O)CCCN1C2CCC1CC(NC(=O)c1cc3ccccc3n(C(C)C)c1=O)C2 (stereo not drawn) [Compound 27, Endo-N-(8-(3-(ethoxycarbonyl)propyl)-8-azabicyclo[3.2.1]oct-3-yl)-1-isopropyl-2-oxo-1,2-dihydro-3-quinolinecarboxamide hydrochloride] |  | 19.3 nM
15 | CC(C)n1c(=O)c(C(=O)NC2CC3CCC(C2)N3CCCC(=O)O)cc2ccccc21 (stereo not drawn) [Compound 28, Endo-N-(8-(3-carboxypropyl)-8-azabicyclo[3.2.1]oct-3-yl)-1-isopropyl-2-oxo-1,2-dihydro-3-quinolinecarboxamide] |  | 91.4 nM
16 | CC(=O)CN1C2CCC1CC(NC(=O)c1cc3ccccc3n(C(C)C)c1=O)C2 (stereo not drawn) [Compound 30, Endo-N-(8-(2-oxopropyl)-8-azabicyclo[3.2.1]oct-3-yl)-1-isopropyl-2-oxo-1,2-dihydro-3-quinolinecarboxamide hydrochloride] |  | 11.5 nM

Row | Compound | EC50 [1] | EC50
17 | CC(=O)CCCN1C2CCC1CC(NC(=O)c1cc3ccccc3n(C(C)C)c1=O)C2 (stereo not drawn) [Compound 31, Endo-N-(8-(4-oxopentyl)-8-azabicyclo[3.2.1]oct-3-yl)-1-isopropyl-2-oxo-1,2-dihydro-3-quinolinecarboxamide] |  | 52.3 nM
18 | CC(C)n1c(=O)c(C(=O)NC2CC3CCC(C2)N3CCC#N)cc2ccccc21 (stereo not drawn) [Compound 33, Endo-N-(8-(2-cyanoethyl)-8-azabicyclo[3.2.1]oct-3-yl)-1-isopropyl-2-oxo-1,2-dihydro-3-quinolinecarboxamide] |  | 35.8 nM
19 | CC(C)n1c(=O)c(C(=O)NC2CC3CCC(C2)N3CC(N)=O)cc2ccccc21 (stereo not drawn) [Compound 34, Endo-N-(8-carbamoylmethyl-8-azabicyclo[3.2.1]oct-3-yl)-1-isopropyl-2-oxo-1,2-dihydro-3-quinolinecarboxamide] |  | 61.9 nM
20 | C=CCN1C2CCC1CC(OC(=O)c1cc3ccccc3n(C(C)C)c1=O)C2 (stereo not drawn) [Compound 35, endo-8-(2-propenyl)-8-azabicyclo[3.2.1]oct-3-yl 1-isopropyl-2-oxo-1,2-dihydro-3-quinolinecarboxylate hydrochloride] |  | 54.4 nM
21 | CC(C)n1c(=O)c(C(=O)OC2CC3CCC(C2)N3CCO)cc2ccccc21 (stereo not drawn) [Compound 37, Endo-8-(2-hydroxyethyl)-8-azabicyclo[3.2.1]oct-3-yl 1-isopropyl-2-oxo-1,2-dihydro-3-quinolinecarboxylate hydrochloride] |  | 16.1 nM
22 | CC(C)n1c(=O)c(C(=O)OC2CC3CCC(C2)N3CCCO)cc2ccccc21 (stereo not drawn) [Compound 38, Endo-8-(3-hydroxypropyl)-8-azabicyclo[3.2.1]oct-3-yl 1-isopropyl-2-oxo-1,2-dihydro-3-quinolinecarboxylate] |  | 11.9 nM
23 | CC(C)n1c(=O)c(C(=O)OC2CC3CCC(C2)N3CCCCO)cc2ccccc21 (stereo not drawn) [Compound 39, Endo-8-(4-hydroxybutyl)-8-azabicyclo[3.2.1]oct-3-yl 1-isopropyl-2-oxo-1,2-dihydro-3-quinolinecarboxylate hydrochloride] |  | 16.6 nM
24 | CC(C)n1c(=O)c(C(=O)OC2CC3CCC(C2)N3CCCCCO)cc2ccccc21 (stereo not drawn) [Compound 40, Endo-8-(5-hydroxypentyl)-8-azabicyclo[3.2.1]oct-3-yl 1-isopropyl-2-oxo-1,2-dihydro-3-quinolinecarboxylate hydrochloride] |  | 25.5 nM
25 | CC(C)n1c(=O)c(C(=O)O[C@H]2C[C@H]3CC[C@@H](C2)N3CCCCCCO)cc2ccccc21 [Compound 41, Endo-8-(6-hydroxyhexyl)-8-azabicyclo[3.2.1]oct-3-yl 1-isopropyl-2-oxo-1,2-dihydro-3-quinolinecarboxylate hydrochloride] |  | 50.9 nM
26 | COCCN1[C@@H]2CC[C@H]1C[C@@H](OC(=O)c1cc3ccccc3n(C(C)C)c1=O)C2 [Compound 42, Endo-8-(2-methoxyethyl)-8-azabicyclo[3.2.1]oct-3-yl 1-isopropyl-2-oxo-1,2-dihydro-3-quinolinecarboxylate hydrochloride] |  | 18.4 nM
27 | CCOCCN1[C@@H]2CC[C@H]1C[C@@H](OC(=O)c1cc3ccccc3n(C(C)C)c1=O)C2 [Compound 43, Endo-8-(2-ethoxyethyl)-8-azabicyclo[3.2.1]oct-3-yl 1-isopropyl-2-oxo-1,2-dihydro-3-quinolinecarboxylate hydrochloride] |  | 15.2 nM
28 | CCN(CC)CCN1[C@@H]2CC[C@H]1C[C@@H](OC(=O)c1cc3ccccc3n(C(C)C)c1=O)C2 [Compound 44, Endo-8-(2-diethylaminoethyl)-8-azabicyclo[3.2.1]oct-3-yl 1-isopropyl-2-oxo-1,2-dihydro-3-quinolinecarboxylate dihydrochloride] |  | 72.6 nM
29 | CSCCN1[C@@H]2CC[C@H]1C[C@@H](OC(=O)c1cc3ccccc3n(C(C)C)c1=O)C2 [Compound 45, Endo-8-(2-(methylthio)ethyl)-8-azabicyclo[3.2.1]oct-3-yl 1-isopropyl-2-oxo-1,2-dihydro-3-quinolinecarboxylate] |  | 29.5 nM
30 | CC(C)n1c(=O)c(C(=O)O[C@H]2C[C@H]3CC[C@@H](C2)N3CCS(=O)(=O)c2ccccc2)cc2ccccc21 [Compound 46, Endo-8-(2-(phenylsulfonyl)ethyl)-8-azabicyclo[3.2.1]oct-3-yl 1-isopropyl-2-oxo-1,2-dihydro-3-quinolinecarboxylate] |  | 46.5 nM
31 | CC(C)n1c(=O)c(C(=O)O[C@H]2C[C@H]3CC[C@@H](C2)N3CCN2CCOCC2)cc2ccccc21 [Compound 47, Endo-8-(2-morpholinoethyl)-8-azabicyclo[3.2.1]oct-3-yl 1-isopropyl-2-oxo-1,2-dihydro-3-quinoline-carboxylate dihydrochloride] |  | 30.8 nM
32 | CC(C)n1c(=O)c(C(=O)O[C@H]2C[C@H]3CC[C@@H](C2)N3CC2CCCCO2)cc2ccccc21 (stereo partly drawn) [Compound 48, Endo-8-(tetrahydropyran-2-methyl)-8-azabicyclo[3.2.1]oct-3-yl 1-isopropyl-2-oxo-1,2-dihydro-3-quinolinecarboxylate hydrochloride] |  | 55.9 nM
